As usually defined, the IC50 is the concentration that gives 50% inhibition. A high value points to weaker potency in that assay. As a reminder, the inhibition is the share of the control response that was lost under treatment.

Data set [1] addresses T1, butyrylcholinesterase (BChE) (Equus caballus, UniProt P81908).
T1 construct: butyrylcholinesterase (BChE, E.C. from equine serum); purchased Sigma Aldrich (St. Louis, MO, USA); host or cells: equine serum
Description: biochemical. Set-up: species or system equine. The note with it: for IC50: BChE IC50 (μM).

Data set [2] deals with T2, acetylcholinesterase (AChE) (Electrophorus electricus, UniProt O42275).
T2 construct: purchased Sigma Aldrich (St. Louis, MO, USA)
Nature of the data set: biochemical. Set-up: species or system electric eel. The note with it: read-out: AChE Inhibition (%).

Data set [3] in a line: Complex formation with Fe^3+, spectrophotometric titration. To be noted: for absorptivity of the complex higher than that of the ligand / molar absorptivity of the complex formed: complex with Fe^3+; for molar absorptivity of the complex formed: slope of absorbance vs. ligand concentration plot; for Molar absorptivities at the longer-wavelength band maxima, ε: free ligand; for absorbance vs. ligand concentration plot: titration at constant Fe(III) content. Type of data set: physicochemical. As for the experimental part:
For this purpose, the following compounds were selected: 1, 3, 6 and 7. The Fe^3+ ions strongly hydrolyze, decreasing the pH of the aqueous system; thus, acidic solutions were used to study the possible complex formation via spectrophotometric titrations.
The absorption spectra used to determine the molar absorptivity and to evaluate the complex formation constant were recorded with a Specord S600 spectrophotometer (Analytic Jena GmbH, Jena, Germany) in the 190–900 nm wavelength range. During the titration, the ligand concentration was increased at a constant Fe(III) content.

A further data set concerns BChE. The note with it: selectivity BChE over AChE; cited from earlier work.

T2 sequence (O42275 24-633): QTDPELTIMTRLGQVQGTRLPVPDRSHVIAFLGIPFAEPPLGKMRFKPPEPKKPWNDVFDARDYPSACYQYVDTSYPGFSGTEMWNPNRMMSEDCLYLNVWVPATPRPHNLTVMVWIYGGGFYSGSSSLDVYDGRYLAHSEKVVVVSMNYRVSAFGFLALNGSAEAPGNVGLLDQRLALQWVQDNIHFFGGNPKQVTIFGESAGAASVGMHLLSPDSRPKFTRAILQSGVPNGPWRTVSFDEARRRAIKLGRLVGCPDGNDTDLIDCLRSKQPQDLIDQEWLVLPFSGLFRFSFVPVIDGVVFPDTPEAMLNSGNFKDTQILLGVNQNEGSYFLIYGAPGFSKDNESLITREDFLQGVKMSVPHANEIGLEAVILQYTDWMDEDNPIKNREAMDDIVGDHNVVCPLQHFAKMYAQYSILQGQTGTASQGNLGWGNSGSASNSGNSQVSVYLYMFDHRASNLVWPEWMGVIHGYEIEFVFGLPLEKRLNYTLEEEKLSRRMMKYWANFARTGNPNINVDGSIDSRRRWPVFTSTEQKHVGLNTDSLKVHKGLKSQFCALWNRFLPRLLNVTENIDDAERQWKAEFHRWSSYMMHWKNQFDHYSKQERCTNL
T1 sequence (P81908 whole entry): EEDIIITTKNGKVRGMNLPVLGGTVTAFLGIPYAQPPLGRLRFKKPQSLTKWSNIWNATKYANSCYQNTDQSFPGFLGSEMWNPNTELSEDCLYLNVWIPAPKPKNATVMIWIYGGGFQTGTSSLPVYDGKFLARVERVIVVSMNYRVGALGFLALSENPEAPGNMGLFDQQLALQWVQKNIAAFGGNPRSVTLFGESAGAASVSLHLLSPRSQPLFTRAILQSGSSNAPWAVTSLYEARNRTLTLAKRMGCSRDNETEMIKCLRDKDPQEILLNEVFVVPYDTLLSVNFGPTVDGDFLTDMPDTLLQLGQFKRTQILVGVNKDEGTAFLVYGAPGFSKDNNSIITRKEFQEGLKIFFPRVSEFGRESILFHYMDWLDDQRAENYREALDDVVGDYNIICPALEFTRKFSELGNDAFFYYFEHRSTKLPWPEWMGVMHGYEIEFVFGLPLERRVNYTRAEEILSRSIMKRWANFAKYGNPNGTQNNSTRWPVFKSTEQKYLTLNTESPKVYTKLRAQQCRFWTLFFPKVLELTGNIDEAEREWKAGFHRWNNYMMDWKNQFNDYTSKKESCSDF

In data set [1], `Cc1cnc(/C=C/c2cc(F)ccc2OC(=O)N(C)C)s1` [Compound 12, (E)-4-fluoro-2-(2-(5-methylthiazol-2-yl)vinyl)phenyl dimethylcarbamate] registered an IC50 of 23.4 ± 2.43 µM. For the same compound, the figures for the inhibition at 100 µM in data set [1] (read-out: BChE Inhibition (%)) and in data set [2] were 81.4% and 23.9%, respectively.
The corresponding values for `Cc1ccc(/C=C/c2cc(Cl)ccc2OC(=O)N(C)C)s1` [Compound 10, (E)-4-chloro-2-(2-(5-methylthiophen-2-yl)vinyl)phenyl dimethylcarbamate] are 23.2 ± 3.78 µM, 85.7% and 27%.
`CN(C)C(=O)Oc1ccc(F)cc1/C=C/c1cccs1` [Compound 3, (E)-4-fluoro-2-(2-(thiophen-2-yl)vinyl)phenyl dimethylcarbamate] yielded a half-maximal inhibitory concentration (IC50) in data set [1] of 1.48 ± 0.36 µM. Further, the inhibition at 100 µM in data set [1] (read-out: BChE Inhibition (%)) is 85%. Moreover, the inhibition at 100 µM in data set [2] was 12.6%. In data set [3], the “absorptivity of the complex higher than that of the ligand” value was “about 26%”; the “molar absorptivity of the complex formed” value was 13,200 M^−1 cm^−1; the “Molar absorptivities at the longer-wavelength band maxima, ε” value (from here on “Molar absorptivities”) is on record as 10,440 M^–1cm^–1.
Take `Cc1ccc(OC(=O)N(C)C)c(/C=C/c2ccc(C)s2)c1` [Compound 8, (E)-4-methyl-2-(2-(5-methylthiophen-2-yl)vinyl)phenyl dimethylcarbamate]: the midpoint of inhibition in data set [1], the IC50, lay at 25.5 ± 0.21 µM. For the same compound, the inhibition at 100 µM came to 72.5% in data set [1] (read-out: BChE Inhibition (%)) and 25.2% in data set [2].
In the case of `CN(C)C(=O)Oc1ccccc1/C=C/c1cccs1` [Compound 1, (E)-2-(2-(thiophen-2-yl)vinyl)phenyl dimethylcarbamate], in data set [1], half-maximal inhibition (IC50) required 0.12 ± 0.09 µM. In addition, in data set [1] (read-out: BChE Inhibition (%)), the inhibition at 50 µM was found to be 85%. Further, the inhibition at 100 µM in data set [2] is 30%. For the same compound, in data set [3], the “Molar absorptivities” value is 22,570 M^–1cm^–1 and the “absorbance vs. ligand concentration plot” value is “no deviation from the straight line”.
`COc1ccc(/C=C/c2cccs2)c(OC(=O)N(C)C)c1` [Compound 6, (E)-5-methoxy-2-(2-(thiophen-2-yl)vinyl)phenyl dimethylcarbamate] displayed an IC50 in data set [1] of 0.9 ± 0.14 µM. In data set [1] (read-out: BChE Inhibition (%)), the inhibition at 25 µM turned out to be 84.4%. The inhibition at 100 µM in data set [2] turned out to be 1%. In data set [3], the “absorptivity of the complex higher than that of the ligand” value is “ca. 64%”; the “molar absorptivity of the complex formed” value was “about 26,700 M^−1 cm^−1”; the “Molar absorptivities” value is 16,330 M^–1cm^–1.
Take cymserine: the “more effective as a BChE inhibitor compared to AChE” value in the data set with BChE is given as 15 times.
In data set [1], `COc1ccc(OC(=O)N(C)C)c(/C=C/c2cccs2)c1` [Compound 5, (E)-4-methoxy-2-(2-(thiophen-2-yl)vinyl)phenyl dimethylcarbamate] yielded an IC50 of 11.6 ± 0.18 µM. Further, the inhibition at 100 µM in data set [1] (read-out: BChE Inhibition (%)) came out at 84%; in data set [2], 11%.
For the compound `CN(C)C(=O)Oc1cccc(/C=C/c2cccs2)c1` [Compound 11, (E)-3-(2-(thiophen-2-yl)vinyl)phenyl dimethylcarbamate], the IC50 in data set [1] was 11.4 ± 2.48 µM. Moreover, the values for the inhibition at 100 µM in data set [1] (read-out: BChE Inhibition (%)) and in data set [2] were 83.4% and 19%, respectively.
`Cc1ccc(OC(=O)N(C)C)c(/C=C/c2cccs2)c1` [Compound 2, (E)-4-methyl-2-(2-(thiophen-2-yl)vinyl)phenyl dimethylcarbamate] gave an IC50 in data set [1] of 1.05 ± 0.09 µM. For the same compound, the inhibition at 10 µM in data set [1] (read-out: BChE Inhibition (%)) was found to be 85%. In data set [2], the inhibition at 100 µM was determined as 16.7%.
With `CN(C)C(=O)Oc1ccc(Cl)cc1/C=C/c1cccs1` [Compound 4, (E)-4-chloro-2-(2-(thiophen-2-yl)vinyl)phenyl dimethylcarbamate], in data set [1], the IC50 was 2.83 ± 0.03 µM. Further, in data set [1] (read-out: BChE Inhibition (%)), the inhibition at 25 µM is 85.3%. Besides, the inhibition at 100 µM in data set [2] worked out at 35%.
In turn, `Cc1ccc(/C=C/c2ccccc2OC(=O)N(C)C)s1` [Compound 7, (E)-2-(2-(5-methylthiophen-2-yl)vinyl)phenyl dimethylcarbamate] displayed an IC50 in data set [1] of 0.38 ± 0.01 µM. The inhibition at 25 µM in data set [1] (read-out: BChE Inhibition (%)) came out at 86.3%. For the same compound, the inhibition at 100 µM in data set [2] was 17.7%. For the same compound, in data set [3], the “Molar absorptivities” value is on record as 19,410 M^–1cm^–1 and the “absorbance vs. ligand concentration plot” value was “no deviation from the straight line”.
Consider `Cc1ccc(/C=C/c2cc(F)ccc2OC(=O)N(C)C)s1` [Compound 9, (E)-4-fluoro-2-(2-(5-methylthiophen-2-yl)vinyl)phenyl dimethylcarbamate], for which the midpoint of inhibition in data set [1], the IC50, lay at 15 ± 2.32 µM. Moreover, the inhibition at 100 µM in data set [1] (read-out: BChE Inhibition (%)) stood at 85.2%; in data set [2] it was 23.6%.
As for `Cc1cnc(/C=C/c2cc(Cl)ccc2OC(=O)N(C)C)s1` [Compound 13, (E)-4-chloro-2-(2-(5-methylthiazol-2-yl)vinyl)phenyl dimethylcarbamate], the midpoint of inhibition in data set [1], the IC50, lay at 3.77 ± 0.13 µM. Further, the inhibition at 50 µM in data set [1] (read-out: BChE Inhibition (%)) was determined as 84.1%. Further, in data set [2], the inhibition at 100 µM was determined as 37.5%.

The record behind these values is publication PMC11767309 (Molecules, 2025).
